Assay results published in patent US5954858A, “Bioreactor process for the continuous removal of organic compounds from a vapor phase process stream” (North Carolina State University, priority 1996, dated 1999).
Entries after “also recorded” stand apart in the source; their conditions may differ.

How the values were obtained:
[1] = test system: isolated soil consortia; experiment: Degradability / utilization as growth substrate by isolated soil consortia; type: cell-based; details: utilization as carbon source for growth and energy
Text: (§1) Using a mixed consortium of organisms isolated in liquid culture from soil samples removed from a site saturated with gasoline for a number of years, the model compounds from each of the represented species in furniture exhaust gases were examined for degradability. Degradability actually refers to the ability of the microorganisms to utilize a compound as a carbon source for growth and energy. Different carbon sources are preferred by different organisms, so it was important to determine which model compounds were acceptable for the consortium which was isolated. Following completion of these initial studies, organism subcultures were generated for specific compounds.

[2] = test system: isolated consortia; experiment: Growth rate of cultures on o-xylene; type: cell-based, bacterial cultures isolated from soil samples
Text: as §1
Pure bacterial cultures (single identifiable organisms) were established on meta- and para-xylene; the other cultures consisted of approximately three different bacterial strains each. Maximum growth rates for the isolated consortia were determined in shake flask studies containing minimal media and supplemented with the appropriate compound. Concentrations of volatile organic compounds added to the flasks were 400 ppm (mole/mole) for MEK and MIBK, 150 ppm for m-xylene and p-xylene, and 2000 ppm for IBA and methanol.

[3] = test system: Strain mx-2; experiment: Oxygen uptake rate, strain mx-2; type: cell-based, bacterial strain mx-2
Description: (§2) Experiments were conducted to examine the range of compounds degraded by enzymes present in the metabolic pathways of the strains established on meta- and para-xylene, as described in Example 7. […] The compounds listed Table 7 from benzoate through protocatechuate are enzymatic pathway intermediates in the oxidation of aromatic compounds.

[4] = test system: Strain px-2; experiment: Oxygen uptake rate, strain px-2; type: cell-based, bacterial strain px-2
Description: as §2

[5] = Partition coefficient of solute between stripping fluid (octanol) and air; type: physicochemical
Description: Before beginning work with the LIQUI-CEL® membrane modules presented in Example 2, partition coefficient experiments were performed to investigate the equilibrium distribution of m-xylene, MEK, and MIBK between phases for stripping fluid/air. Octanol was chosen as the stripping fluid because data from previously conducted studies was readily available for comparison.
(§3) Partition coefficients are defined as a measure of the affinity a solute has for one phase over another at equilibrium. Therefore, they are an integral part of equations related to membrane contactor design and operation. Partition coefficients are expressed as a ratio of concentrations; the general form being (concentration in solvent)/(concentration in air).
For these studies, two forms of the partition coefficient were used. The first was the general form, which indicated the level of driving force for mass transfer (a value greater than 1 indicates sufficient driving force). The second form was defined as 1/(general form), or 1/Pgen, which was used in system operating equations.

[6] = Partition coefficient of m-xylene between natural oils and air; type: physicochemical; details: 31 °C
Text: as §3
An additional set of experiments was run to evaluate stripping fluids other than octanol. This was due mainly to the relatively high cost of commercially available octanol. Partition coefficients were determined for m-xylene in several natural oils at 31° C. […] The purchase cost of these oils is roughly one-quarter that of octanol.

[7] = Partition coefficient of solute between octanol and water; type: physicochemical; details: 31 °C
[8] = test system: mx-2; experiment: Growth rate of mx-2 strain in shake flask; type: cell-based, mx-2 bacterial strain; details: for effect on the growth rate: mx-2 mixed carbon source study
Text: as §1, with “Different carbon sources are preferred by different organisms, so it was important to determine which model compounds were acceptable for the consortium which was isolated.” left out
(§4) Maximum growth rates for the isolated consortia were determined in shake flask studies containing minimal media and supplemented with the appropriate compound. Concentrations of volatile organic compounds added to the flasks were 400 ppm (mole/mole) for MEK and MIBK, 150 ppm for m-xylene and p-xylene, and 2000 ppm for IBA and methanol.
(§5) The effects of carbon source composition were examined for the mx-2 bacterial strain. mx-2 is one of the strains of microorganism isolated from soil samples exposed to gasoline as described in Example 7.
(§6) In addition to examining the effects of ethanol and methanol, the impact of octanol on microorganism growth was determined. This investigation was necessary since some octanol (stripping fluid) will be delivered to the membrane bioreactor with the VHAPs/VOCs.

[9] = test system: mx-2; experiment: m-Xylene degradation rate of mx-2 strain; type: cell-based, mx-2 bacterial strain
Text: as §1, with “Different carbon sources are preferred by different organisms, so it was important to determine which model compounds were acceptable for the consortium which was isolated.” left out
as §4, §5, §6

[10] = test system: initial gasoline consortium; experiment: Enrichment of the initial gasoline consortium in individual flasks; type: cell-based, organisms isolated from gasoline-saturated soil samples
Text: as §1

[11] = mx-2 on m-xylene, + 500 ppm octanol

| Compound | Degradability [1] | Oxygen Uptake [3] [μmol/min-mg total protein] | Oxygen Uptake [4] [μmol/min-mg total protein] | cultures capable of degrading compound after enrichment [10] | other results |
| --- | --- | --- | --- | --- | --- |
| Cc1ccccc1C [o-Xylene] | Yes | 0.31 |  |  | growth rate compared with other compounds [2]: relatively slow compared with that on other compounds |
| Cc1ccc(O)c(O)c1 [4-Methylcatechol] |  | 0.92 | 4.35 |  |  |
| O=C(O)c1ccccc1 [Benzoate] |  | 0.66 | 2.34 |  |  |
| CC(C)CO [Isobutyl alcohol] | Yes |  |  |  |  |
| Oc1ccccc1O [Catechol] |  | 1.23 | 5.19 |  |  |
| Cc1cccc(C)c1 [m-xylene] | Yes | 0.82 | 0.31 | cultures capable of degrading each compound were developed | Partition Coef. [oct]/[air] ([5]; 6 °C): 9,865; Partition Coef. [oct]/[air] ([5]; 22 °C): 7,978; Partition Coef. [oct]/[air] ([5]; 31 °C): 7,703; form 2 partition coefficient, Pair/oct (1/general form) ([5]; air/stripping fluid separation unit): 0.00014; Partition Coef. [solvent]/[air] ([6]; corn oil): 8,283; Partition Coef. [solvent]/[air] ([6]; mineral oil): 7,284; Partition coefficients in natural oils versus octanol ([6]; natural oils evaluated): comparable to those for octanol; Partition Coef. [solvent]/[air] ([6]; sunflower seed oil): 8,244; Partition Coef. [oct]/[water] [7]: 1,021; Specific Growth Rate ([8]; mx-2 (strain grown on m-xylene, 150 ppm)): 0.46 hr^1; Degradation Rate ([9]; mx-2 (grown on m-xylene, 150 ppm)): 3.60 * 10^-10 mg/(hr - cell) |
| CC(=O)OCC(C)C [isobutyl acetate] |  |  |  | cultures capable of degrading each compound were developed |  |
| Cc1ccccc1 [Toluene] | Yes | 0.18 | 0.17 |  |  |
| CO [Methanol, methanol] | Yes |  |  | cultures capable of degrading each compound were developed | effect on the growth rate [8]: negligible; also recorded: no effect; Specific Growth Rate ([8]; mx-2 on m-xylene, + 0.2% MeOH): 0.45 h⁻¹; Degradation Rate ([9]; mx-2 on m-xylene, + 0.2% MeOH): 3.57 * 10^-10 mg/(hr - cell) |
| CC(C)=O [Acetone] | Yes |  |  |  |  |
| CCCCO [n-Butyl alcohol] | Yes |  |  |  |  |
| CC(=O)CC(C)C [MIBK, methyl isobutyl ketone] | Yes |  |  | cultures capable of degrading each compound were developed | Partition Coef. [oct]/[air] ([5]; 6 °C): .infin.; Partition Coef. [oct]/[air] ([5]; 22 °C): 22,045; Partition Coef. [oct]/[air] ([5]; 31 °C): 8,721; Partition Coef. [oct]/[water] [7]: 2.1 |
| Cc1ccc(C)cc1 [p-Xylene] | Yes | 1.21 | 0.34 | cultures capable of degrading each compound were developed |  |
| C=O [Formaldehyde] | Yes |  |  |  |  |
| Cc1cccc(O)c1O [3-Methylcatechol] |  | 1.17 | 1.50 |  |  |
| CCCCCCCCO [octanol] |  |  |  |  | Specific Growth Rate ([8]; 500 ppm octanol (without "+")): 0.20 h⁻¹; effect on the growth rate [8]: no effect; Specific Growth Rate [8, 11]: 0.46 h⁻¹; Degradation Rate [9, 11]: 3.60 * 10^-10 mg/(hr - cell); effect on the degradation rate ([9]; test microorganism strain grown on m-xylene): no effect |
| c1ccccc1 [Benzene] |  | 0.27 | 0.13 |  |  |
| CCC(C)=O [MEK, methyl ethyl ketone] | Yes |  |  | cultures capable of degrading each compound were developed |  |
| CCO [Ethanol] | Yes |  |  |  | effect on the growth rate [8]: negligible; Specific Growth Rate ([8]; mx-2 on m-xylene, + 0.2% EtOH): 0.40 h⁻¹; lowering of the maximum growth rate ([8]; mx-2 on m-xylene, in presence of ethanol): 10%; reduction of the degradation rate of m-xylene ([9]; mx-2, in presence of ethanol): about 30%; Degradation Rate ([9]; mx-2 on m-xylene, + 0.2% EtOH): 2.34 * 10^-10 mg/(hr - cell) |
| C=Cc1ccccc1 [Styrene] | Yes | 0.55 | 0.47 |  |  |
